Data reported in patent US9260417B2, “Therapeutic methods and compositions involving allosteric kinase inhibition” (AMITECH THERAPEUTIC SOLUTIONS, INC., priority 2010, dated 2016).
pEC50: −log10 of the molar value. Like-named read-outs stand apart in the source and are kept apart here.

How the values were obtained:
FLT3 = FLT3 (Homo sapiens (Human), UniProt P36888); assay: In vitro kinase panel (SelectScreen); format: biochemical
Procedure: (§2) In vitro kinase screen and competitive binding assay. […] 11-point Kd curves were determined for hits identified during the initial screen.

HUVECs = assay: XTT viability assay in HUVECs; format: cell-based, human; details: 72 h, read-out: EC50, endothelial cell viability
Procedure: FIG. 1A-1F illustrate molecular modeling and assay screening to compounds for dual targeting of PDGFRβ and RAF. (FIG. 1A) Molecular modeling of the amino-triazole based small molecules in PDGFRβ and RAF, respectively. […] A homology model of PDGFRβ was created with a structurally-related family member (VEGFR2, PDB 1y6b). […] To autophosphorylation, immunoblots were carried out with a phospho-tyrosine antibody. Membranes were stripped and reprobed for total PDGFRβ levels. […] (FIG. 1D) Structure activity relationships of the amino-triazole based small molecules comparing both PDGFRβ and B-RAF. […] Curves represent the average of 3 separate experiments, error bars represent ±SEM.
For XTT assays, cells were grown in 96-well plates overnight and all assays were conducted in growth medium will full serum and additives. […] Dose-response curves were plotted using GraphPad Prism software and EC50s were calculated using this program.

FLT3 D835Y = FLT3 D835Y (Homo sapiens (Human), UniProt P36888, D835Y); assay: In vitro kinase panel (SelectScreen); format: biochemical
Procedure: as §2

[1] = system: Tg(fli1:EGFP) zebrafish embryos; assay: Zebrafish angiogenesis model; details: for blood vessel formation in zebrafish embryos: treated 20-48 hpf, 1 μM 6 or SU5416, up to 10 μM 3; for effect on established intersegmental vessels: compound added at 30 hpf, […] 6, 1 μM sorafenib; for viability of zebrafish embryos: treatment at 48-72 hpf
Procedure: Embryos were treated with 1 μM 6 or SU5416, or 10 μM 3 from 20 hours post fertilization (hpf) until 48 hpf. Representative 3D reconstructions of the blood vasculature are shown for both the head and tail regions of the embryo. Designations for the major vessels in the head and tail of the zebrafish embryo at 48 hpf are available in FIG. 8A. (FIG. 3B) Disruption of lumen formation in the zebrafish during late vessel maturation. Zebrafish treated with either 1 μM 6 or 10 μM 3 from 20-48 hpf were imaged at 35 and 48 hpf. […] Shown is 3D overlap reconstruction of the GFP expressing intersegmental vessels with TUNEL-positive nuclei at 48 hpf (shown in red). Representative phase contrast views as well as quantification of intersegmental vessel volumes from FIG. 3A and FIG. 3B can be found in FIG. 8B-D, respectively. (FIG. 3C) Time course of drug addition to zebrafish. […] At 30 hpf the zebrafish embryos established early vessels with evident lumens. […] All scale bars=100 μm.
Z-stacks from laser scanning confocal microscopy are shown depicting formation of the intersegmental vessels at 48 hpf. n=6 embryos/treatment. (FIG. 4B) HUVECs were co-cultured with hTERT-human hepatic stellate cells in a 3-D collagen matrix in the presence of complete EBM-2 medium to monitor pericyte-associated endothelial tube formation. […] The endothelial tubes were stained at 24 h by adding 2 μl FITC labeled Ulex europaeus lectin (Vector labs) per well. Images were acquired 48 h post seeding of the cells. One representative panel from 3 independent experiments is shown. Green—FITC lectin labeled endothelial cells, Red—DiIC(3) labeled stellate cells. […] Scale bar=200 μm. (FIG. 4C) Tube lengths were measured using Metamorph software for each tube for all 10 fields that were acquired. The % pericyte-covered tube length was calculated from the ratio of tube length sums for the tubes with and without pericyte contact. Error bars are reported as ±SEM of two wells per group. *indicates p<0.05 compared to DMSO group.
Zebrafish studies. Transgenic Tg(fli1:EGFP) zebrafish embryos were purchased from www.zfin.org and reported elsewhere (Lawson, et al. (2002) Dev Biol 248:307-318) and maintained according to (“Zebrafish—A Practical Approach”, Oxford University Press, 2002). Compounds in DMSO stock solutions were diluted directly into the water and vessels were imaged for GFP expression using a Nikon c1-si confocal microscope. Apoptosis was measured by TUNEL staining using the Apoptag in situ Red Fluorescence Kit (Chemicon) with a protocol described previously (Stanton, et al. (2006) The Journal of biological chemistry 281:28782-28793).

PKC beta I = PKC beta I (Homo sapiens (Human), UniProt P05771); assay: In vitro kinase panel (SelectScreen); format: biochemical
Sequence of PKC beta I (P05771 whole entry): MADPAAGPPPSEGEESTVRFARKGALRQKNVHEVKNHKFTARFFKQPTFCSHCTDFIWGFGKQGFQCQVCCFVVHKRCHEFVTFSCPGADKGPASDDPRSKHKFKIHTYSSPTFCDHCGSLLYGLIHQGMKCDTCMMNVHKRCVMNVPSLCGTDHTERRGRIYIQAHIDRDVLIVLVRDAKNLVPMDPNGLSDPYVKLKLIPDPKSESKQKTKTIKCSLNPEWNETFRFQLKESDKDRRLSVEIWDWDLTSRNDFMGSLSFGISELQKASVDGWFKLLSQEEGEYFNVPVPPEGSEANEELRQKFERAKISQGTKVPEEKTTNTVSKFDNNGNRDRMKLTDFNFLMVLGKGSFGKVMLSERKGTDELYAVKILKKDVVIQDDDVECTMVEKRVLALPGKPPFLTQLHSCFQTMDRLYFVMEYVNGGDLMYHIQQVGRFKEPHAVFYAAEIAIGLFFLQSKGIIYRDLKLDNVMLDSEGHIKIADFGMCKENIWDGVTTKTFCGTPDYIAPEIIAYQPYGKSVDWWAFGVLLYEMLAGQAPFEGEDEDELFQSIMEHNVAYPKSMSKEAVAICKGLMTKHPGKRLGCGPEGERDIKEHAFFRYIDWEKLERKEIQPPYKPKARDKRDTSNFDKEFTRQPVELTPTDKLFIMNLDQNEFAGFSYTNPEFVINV
Source text: (§1) In vitro kinase screen and competitive binding assay. Sorafenib as well as test compounds were submitted to Invitrogen and screened using their SelectScreen™ Profiling Service.

FGFR4 = FGFR4 (Homo sapiens (Human), UniProt P22455); assay: In vitro kinase panel (SelectScreen); format: biochemical
Sequence of FGFR4 (P22455 22-802): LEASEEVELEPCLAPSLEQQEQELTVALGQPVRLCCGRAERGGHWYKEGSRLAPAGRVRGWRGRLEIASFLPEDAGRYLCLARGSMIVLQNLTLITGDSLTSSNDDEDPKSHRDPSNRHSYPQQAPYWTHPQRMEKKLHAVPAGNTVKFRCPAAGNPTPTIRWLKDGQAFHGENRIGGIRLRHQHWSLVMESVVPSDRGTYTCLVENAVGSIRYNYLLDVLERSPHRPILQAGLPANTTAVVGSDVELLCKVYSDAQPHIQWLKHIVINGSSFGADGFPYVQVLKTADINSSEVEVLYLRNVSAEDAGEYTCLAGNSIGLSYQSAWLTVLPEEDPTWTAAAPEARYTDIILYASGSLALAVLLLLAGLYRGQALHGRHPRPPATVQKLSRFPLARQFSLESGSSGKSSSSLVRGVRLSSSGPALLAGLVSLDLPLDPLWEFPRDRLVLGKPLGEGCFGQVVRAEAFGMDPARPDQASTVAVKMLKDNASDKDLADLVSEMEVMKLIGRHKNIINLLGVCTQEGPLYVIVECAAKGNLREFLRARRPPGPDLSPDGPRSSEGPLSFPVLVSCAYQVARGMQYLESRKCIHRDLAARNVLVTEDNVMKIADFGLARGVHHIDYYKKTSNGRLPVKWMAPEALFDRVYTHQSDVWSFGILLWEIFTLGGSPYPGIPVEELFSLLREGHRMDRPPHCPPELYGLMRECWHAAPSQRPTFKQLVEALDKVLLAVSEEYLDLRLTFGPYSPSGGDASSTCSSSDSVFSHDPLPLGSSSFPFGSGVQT
Source text: as §1

JNK3 = JNK3 (Homo sapiens (Human), UniProt P53779); assay: In vitro kinase panel (SelectScreen); format: biochemical
Source text: as §1

FGFR2 = FGFR2 (Homo sapiens (Human), UniProt P21802); assay: In vitro kinase panel (SelectScreen); format: biochemical
Sequence of FGFR2 (P21802 22-821): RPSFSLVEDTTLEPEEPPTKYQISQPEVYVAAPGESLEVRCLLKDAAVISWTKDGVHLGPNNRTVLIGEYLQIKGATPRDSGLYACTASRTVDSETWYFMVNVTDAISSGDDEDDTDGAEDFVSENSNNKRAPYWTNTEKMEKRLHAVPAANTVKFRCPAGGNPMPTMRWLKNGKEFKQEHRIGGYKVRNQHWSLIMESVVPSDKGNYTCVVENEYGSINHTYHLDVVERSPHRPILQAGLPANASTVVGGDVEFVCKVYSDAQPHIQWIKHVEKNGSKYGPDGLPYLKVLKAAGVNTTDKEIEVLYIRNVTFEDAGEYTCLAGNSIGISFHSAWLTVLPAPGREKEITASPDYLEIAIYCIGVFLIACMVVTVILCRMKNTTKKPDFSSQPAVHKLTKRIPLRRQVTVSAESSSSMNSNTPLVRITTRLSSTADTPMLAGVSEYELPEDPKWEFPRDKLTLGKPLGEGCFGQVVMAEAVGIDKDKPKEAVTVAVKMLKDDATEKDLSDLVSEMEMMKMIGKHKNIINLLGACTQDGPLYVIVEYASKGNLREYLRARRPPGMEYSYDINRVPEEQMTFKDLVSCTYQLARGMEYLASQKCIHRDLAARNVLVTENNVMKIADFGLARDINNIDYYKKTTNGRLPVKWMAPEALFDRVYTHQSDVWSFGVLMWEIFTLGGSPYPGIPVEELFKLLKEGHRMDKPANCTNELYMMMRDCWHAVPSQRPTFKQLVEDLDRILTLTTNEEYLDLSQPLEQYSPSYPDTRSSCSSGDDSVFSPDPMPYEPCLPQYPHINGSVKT
Source text: as §1

JNK1 = JNK1 (Homo sapiens (Human), UniProt P45983); assay: In vitro kinase panel (SelectScreen); format: biochemical
Source text: as §1

FGFR1 = FGFR1 (Homo sapiens (Human), UniProt P11362); assay: In vitro kinase panel (SelectScreen); format: biochemical
Sequence of FGFR1 (P11362 22-822): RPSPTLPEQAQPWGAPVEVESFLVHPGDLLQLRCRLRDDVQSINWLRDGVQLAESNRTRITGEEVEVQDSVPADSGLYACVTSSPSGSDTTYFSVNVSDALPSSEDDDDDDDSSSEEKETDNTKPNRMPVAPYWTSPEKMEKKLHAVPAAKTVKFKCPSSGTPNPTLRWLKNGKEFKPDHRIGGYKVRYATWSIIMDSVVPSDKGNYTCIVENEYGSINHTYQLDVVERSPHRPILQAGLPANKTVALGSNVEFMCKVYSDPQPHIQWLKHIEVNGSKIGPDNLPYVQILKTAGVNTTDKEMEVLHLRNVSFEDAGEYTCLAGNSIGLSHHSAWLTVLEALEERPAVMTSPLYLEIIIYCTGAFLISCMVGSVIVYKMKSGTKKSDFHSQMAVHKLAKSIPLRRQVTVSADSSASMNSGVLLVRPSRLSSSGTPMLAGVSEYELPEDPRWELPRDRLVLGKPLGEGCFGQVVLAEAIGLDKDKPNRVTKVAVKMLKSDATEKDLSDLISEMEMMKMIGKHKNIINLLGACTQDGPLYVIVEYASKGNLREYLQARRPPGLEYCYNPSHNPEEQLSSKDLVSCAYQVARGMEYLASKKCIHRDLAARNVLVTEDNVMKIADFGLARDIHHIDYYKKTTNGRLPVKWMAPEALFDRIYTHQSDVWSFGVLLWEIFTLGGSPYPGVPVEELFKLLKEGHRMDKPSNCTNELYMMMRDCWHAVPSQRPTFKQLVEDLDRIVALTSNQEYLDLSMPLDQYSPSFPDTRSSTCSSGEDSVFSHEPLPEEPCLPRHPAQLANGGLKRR
Source text: as §1

MEK1 = MEK1 (Homo sapiens (Human), UniProt Q02750); assay: In vitro kinase panel (SelectScreen); format: biochemical
Source text: as §1

KIT = KIT (Homo sapiens (Human), UniProt P10721); assay: In vitro kinase panel (SelectScreen); format: biochemical
Source text: as §1

MET (cMet) = MET (cMet) (Homo sapiens (Human), UniProt P08581); assay: In vitro kinase panel (SelectScreen); format: biochemical
Sequence of MET (cMet) (P08581 25-1390): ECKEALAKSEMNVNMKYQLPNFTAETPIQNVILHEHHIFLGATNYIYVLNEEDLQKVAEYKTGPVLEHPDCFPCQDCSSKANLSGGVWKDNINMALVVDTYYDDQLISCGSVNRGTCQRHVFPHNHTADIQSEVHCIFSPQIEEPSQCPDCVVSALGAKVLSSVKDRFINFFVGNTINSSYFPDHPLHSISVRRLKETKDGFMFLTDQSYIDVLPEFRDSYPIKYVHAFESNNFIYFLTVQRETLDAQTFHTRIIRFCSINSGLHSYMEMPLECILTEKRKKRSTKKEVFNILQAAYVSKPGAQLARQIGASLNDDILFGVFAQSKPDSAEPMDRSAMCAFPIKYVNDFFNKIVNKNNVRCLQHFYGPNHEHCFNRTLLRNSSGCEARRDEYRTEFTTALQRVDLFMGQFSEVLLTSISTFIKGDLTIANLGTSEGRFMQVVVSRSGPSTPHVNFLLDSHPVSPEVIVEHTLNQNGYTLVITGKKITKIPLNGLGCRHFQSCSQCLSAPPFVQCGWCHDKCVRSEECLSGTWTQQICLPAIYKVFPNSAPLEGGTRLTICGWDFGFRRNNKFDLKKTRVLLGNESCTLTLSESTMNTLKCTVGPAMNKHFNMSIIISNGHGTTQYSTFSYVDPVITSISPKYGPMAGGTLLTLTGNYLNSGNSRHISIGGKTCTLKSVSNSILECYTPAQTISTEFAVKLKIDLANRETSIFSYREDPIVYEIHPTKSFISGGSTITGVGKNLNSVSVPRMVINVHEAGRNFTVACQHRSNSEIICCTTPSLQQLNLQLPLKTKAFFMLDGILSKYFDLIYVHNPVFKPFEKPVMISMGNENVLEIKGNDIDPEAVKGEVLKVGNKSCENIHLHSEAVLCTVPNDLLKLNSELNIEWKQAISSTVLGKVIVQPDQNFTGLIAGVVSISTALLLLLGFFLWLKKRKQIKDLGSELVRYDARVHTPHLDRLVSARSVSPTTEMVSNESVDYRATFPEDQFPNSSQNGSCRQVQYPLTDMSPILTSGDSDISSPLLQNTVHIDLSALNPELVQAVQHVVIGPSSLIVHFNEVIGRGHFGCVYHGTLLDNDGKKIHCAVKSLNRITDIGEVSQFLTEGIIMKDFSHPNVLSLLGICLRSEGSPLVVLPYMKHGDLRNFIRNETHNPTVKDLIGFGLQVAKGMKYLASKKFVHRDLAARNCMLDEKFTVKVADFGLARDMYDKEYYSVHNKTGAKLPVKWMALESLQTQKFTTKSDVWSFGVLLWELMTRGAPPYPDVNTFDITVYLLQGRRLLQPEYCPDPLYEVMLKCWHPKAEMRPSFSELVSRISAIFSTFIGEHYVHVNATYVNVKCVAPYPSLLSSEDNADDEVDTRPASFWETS
Source text: as §1

PKC delta = PKC delta (Homo sapiens (Human), UniProt Q05655); assay: In vitro kinase panel (SelectScreen); format: biochemical
Source text: as §1

FAK2 = FAK2 (Homo sapiens (Human), UniProt Q14289); assay: In vitro kinase panel (SelectScreen); format: biochemical
Source text: as §1

PKC alpha = PKC alpha (Homo sapiens (Human), UniProt P17252); assay: In vitro kinase panel (SelectScreen); format: biochemical
Source text: as §1

IGF1R = IGF1R (Homo sapiens (Human), UniProt P08069); assay: In vitro kinase panel (SelectScreen); format: biochemical
Source text: as §1

PKC gamma = PKC gamma (Homo sapiens (Human), UniProt P05129); assay: In vitro kinase panel (SelectScreen); format: biochemical
Source text: as §1

PKC epsilon = PKC epsilon (Homo sapiens (Human), UniProt Q02156); assay: In vitro kinase panel (SelectScreen); format: biochemical
Source text: as §1

FGFR3 K650E = FGFR3 K650E (Homo sapiens (Human), UniProt P22607, K650E); assay: In vitro kinase panel (SelectScreen); format: biochemical
Source text: as §1

ERK1 = ERK1 (Homo sapiens (Human), UniProt P27361); assay: In vitro kinase panel (SelectScreen); format: biochemical
Sequence of ERK1 (P27361 whole entry): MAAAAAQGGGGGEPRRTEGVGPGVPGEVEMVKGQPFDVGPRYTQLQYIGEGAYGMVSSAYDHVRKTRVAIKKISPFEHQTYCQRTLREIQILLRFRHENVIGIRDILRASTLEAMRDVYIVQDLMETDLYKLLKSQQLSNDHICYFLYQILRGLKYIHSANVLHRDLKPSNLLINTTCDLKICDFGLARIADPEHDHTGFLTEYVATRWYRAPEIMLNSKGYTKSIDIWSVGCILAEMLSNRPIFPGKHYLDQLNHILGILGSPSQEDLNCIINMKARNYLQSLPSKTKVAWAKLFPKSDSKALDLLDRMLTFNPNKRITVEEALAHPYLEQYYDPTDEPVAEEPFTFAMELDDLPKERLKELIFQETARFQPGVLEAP
Source text: as §1

[2] = HUVECs, full growth medium containing 10% FBS

SMILES: Nc1cc(Oc2ccc(-c3nnc(Nc4cccc(C(F)(F)F)c4)[nH]3)cc2)ncn1 [Compound 3]
- % Inhibition at 10 μM (FLT3): −4%
- pEC50 (HUVECs; [2]): 4.74
- % Inhibition at 10 μM (FLT3 D835Y): 29%
- blood vessel formation in zebrafish embryos [1]: had no effect
- % Inhibition at 10 μM (PKC beta I): −3%
- % Inhibition at 10 μM (FGFR4): −6%
- % Inhibition at 10 μM (JNK3): −8%
- % Inhibition at 10 μM (FGFR2): −1%
- % Inhibition at 10 μM (JNK1): −5%
- % Inhibition at 10 μM (FGFR1): 9%
- % Inhibition at 10 μM (MEK1): −5%
- % Inhibition at 10 μM (KIT): 74%
- % Inhibition at 10 μM (MET (cMet)): 7%
- % Inhibition at 10 μM (PKC delta): −1%
- % Inhibition at 10 μM (FAK2): −4%
- % Inhibition at 10 μM (PKC alpha): −5%
- % Inhibition at 10 μM (IGF1R): −4%
- % Inhibition at 10 μM (PKC gamma): 6%
- % Inhibition at 10 μM (PKC epsilon): −3%
- % Inhibition at 10 μM (FGFR3 K650E): 4%
- % Inhibition at 10 μM (ERK1): 1%

SMILES: CSc1nc(N)cc(Oc2ccc(-c3nnc(Nc4cccc(C(F)(F)F)c4)[nH]3)cc2)n1 [Compound 6]
- % Inhibition at 10 μM (FLT3): −2%
- pEC50 (HUVECs; [2]): 6.27
- % Inhibition at 10 μM (FLT3 D835Y): 9%
- effect on established intersegmental vessels [1]: did not suppress the vascular growth and patterning
- blood vessel formation in zebrafish embryos [1]: failed to form mature intersegmental vessels
- viability of zebrafish embryos [1]: all viable
- % Inhibition at 10 μM (PKC beta I): 2%
- % Inhibition at 10 μM (FGFR4): −7%
- % Inhibition at 10 μM (JNK3): −8%
- % Inhibition at 10 μM (FGFR2): −2%
- % Inhibition at 10 μM (JNK1): −3%
- % Inhibition at 10 μM (FGFR1): 6%
- % Inhibition at 10 μM (MEK1): −2%
- % Inhibition at 10 μM (KIT): 28%
- % Inhibition at 10 μM (MET (cMet)): 3%
- % Inhibition at 10 μM (PKC delta): −1%
- % Inhibition at 10 μM (FAK2): −4%
- % Inhibition at 10 μM (PKC alpha): −1%
- % Inhibition at 10 μM (IGF1R): 0%
- % Inhibition at 10 μM (PKC gamma): 5%
- % Inhibition at 10 μM (PKC epsilon): −1%
- % Inhibition at 10 μM (FGFR3 K650E): −1%
- % Inhibition at 10 μM (ERK1): 2%

SMILES: CNC(=O)c1cc(Oc2ccc(NC(=O)Nc3ccc(Cl)c(C(F)(F)F)c3)cc2)ccn1 [sorafenib, reference compound]
- inhibition at 10 µM (FLT3): 9%
- pEC50 (HUVECs; Homo sapiens, HUVEC): 4.88
- inhibition at 10 µM (FLT3 D835Y): 72%
- effect on established intersegmental vessels [1]: disrupted mature intersegmental blood vessels
- viability of zebrafish embryos [1]: induced death in all animals tested
- inhibition at 10 µM (PKC beta I): -1%
- inhibition at 10 µM (FGFR4): 7%
- inhibition at 10 µM (JNK3): -4%
- inhibition at 10 µM (FGFR2): 83%
- inhibition at 10 µM (JNK1): -2%
- inhibition at 10 µM (FGFR1): 44%
- inhibition at 10 µM (MEK1): 0%
- inhibition at 10 µM (KIT): 37%
- inhibition at 10 µM (MET (cMet)): 2%
- inhibition at 10 µM (PKC delta): -4%
- inhibition at 10 µM (FAK2): -3%
- inhibition at 10 µM (PKC alpha): -2%
- inhibition at 10 µM (IGF1R): -3%
- inhibition at 10 µM (PKC gamma): -3%
- inhibition at 10 µM (PKC epsilon): -2%
- inhibition at 10 µM (FGFR3 K650E): 78%
- inhibition at 10 µM (ERK1): 3%
